Results as given in ChEMBL document CHEMBL3044773, “Adulticidal activity of phthalides identified in Cnidium officinale rhizome to B- and Q-biotypes of Bemisia tabaci” (2011).
≈ marks a conversion by molar mass, not a printed value.

Tests used:
Assay type in all cases: functional
Bemisia tabaci [1] = test: Adulticidal activity against female Bemisia tabaci biotype Q (sweet potato whitefly) in cucumber leaves assessed as residual contact toxicity treated for 30 secs before adult insect infestation measured after 24 hr by leaf dip bioassay; conditions: foliar
Bemisia tabaci [2] = test: Biotype susceptibility ratio, ratio of LC50 for female adult Bemisia tabaci biotype Q (sweet potato whitefly) to LC50 for female adult Bemisia tabaci biotype B
Bemisia tabaci [3] = test: Adulticidal activity against female Bemisia tabaci biotype B (sweet potato whitefly) in cucumber leaves assessed as residual contact toxicity treated for 30 secs before adult insect infestation measured after 24 hr by leaf dip bioassay; conditions: foliar

Structure (SMILES)	LC50 (Bemisia tabaci [1]) [µg/mL]	RatioLC50 (Bemisia tabaci [2])	LC50 (Bemisia tabaci [3]) [µg/mL]
CC(C)(C)c1ccc(CSc2cnn(C(C)(C)C)c(=O)c2Cl)cc1 [PYRIDABEN]	211 (≈ 578 µM)	1.6	129 (≈ 354 µM)
CC1(C)C(C=C(Cl)Cl)C1C(=O)OC(C#N)c1cccc(Oc2ccccc2)c1 (stereo not drawn) [ALPHA-CYPERMETHRIN]	482 (≈ 1160 µM)	1.4	337 (≈ 809 µM)
CCN(CC)c1nc(C)cc(OP(=S)(OC)OC)n1 [PIRIMIPHOS METHYL]	235 (≈ 770 µM)	1.3	188 (≈ 616 µM)
O=[N+]([O-])/N=C1\NCCN1Cc1ccc(Cl)nc1 [IMIDACLOPRID]	> 3000	>428.6	7 (≈ 27.4 µM)
C/C(=N\C#N)N(C)Cc1ccc(Cl)nc1 [ACETAMIPRID]	364 (≈ 1640 µM)	31.4	11.6 (≈ 52.1 µM)
CN1COCN(Cc2cnc(Cl)s2)/C1=N\[N+](=O)[O-] [THIAMETHOXAM]	> 3000	>1764.7	1.7 (≈ 5.83 µM)
CCC/C=C1\OC(=O)c2ccccc21 [Z-butylidenephthalide]	586 (≈ 3110 µM)	2.3	254 (≈ 1350 µM)
CCCC[C@@H]1OC(=O)c2ccccc21 [(3S)-BUTYLPHTHALIDE]	338 (≈ 1780 µM)	1	339 (≈ 1780 µM)
CCC/C=C1\OC(=O)C2=C1CCC=C2 [LIGUSTILIDE]	254 (≈ 1340 µM)	0.9	268 (≈ 1410 µM)
COP(=O)(OC)OC=C(Cl)Cl [DICHLORVOS]	224 (≈ 1010 µM)	1.2	182 (≈ 825 µM)
